Laboratory results: patent US20020019374A1, “Salicylohydrazide derivatives, processes and intermediates for their preparation, compositions comprising them, and their use” (priority 2000, published 2002)

melting point: 163 to 168 °C
Compound: C/C(=N\NC(=O)c1cccc([N+](=O)[O-])c1O)c1ccccc1 [I-1, 3-nitrosalicylic (1-phenylethylidene)hydrazide]
